Measurements from patent US20150105252A1, “SUBSTITUTED PYRAZOLES AS HERBICIDES” (E I DU PONT DE NEMOURS AND COMPANY, priority 2013, published 2015).

Key:
barnyardgrass [1] = test: Test A preemergence; format: in vivo, Echinochloa crus-galli; conditions: preemergence
Summary of the method: (§1)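 Visual injury ratings, 0 = no effect to 100 = complete control, taken about 10 days after treatment against untreated controls. Test chemicals, in a non-phytotoxic surfactant-containing solvent, were sprayed onto soil preemergence or onto one- to two-leaf plants (2–10 cm) postemergence, in loam–sand soil under greenhouse conditions.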

crabgrass, large [2] = test: Test A preemergence; format: in vivo, Digitaria sanguinalis; conditions: preemergence
Summary of the method: as §1

velvetleaf [3] = test: Test A preemergence; format: in vivo, Abutilon theophrasti; conditions: preemergence
Summary of the method: as §1

wheat [4] = test: Test A preemergence; format: in vivo, Triticum aestivum; conditions: preemergence
Summary of the method: as §1

corn [5] = test: Test A preemergence; format: in vivo, Zea mays; conditions: preemergence
Summary of the method: as §1

crabgrass, large [6] = test: Test A postemergence; format: in vivo, Digitaria sanguinalis
Summary of the method: as §1

pigweed = test: Test A postemergence; format: in vivo, Amaranthus retroflexus
Summary of the method: as §1

wheat [7] = test: Test A postemergence; format: in vivo, Triticum aestivum
Summary of the method: as §1

blackgrass = test: Test C preemergence; format: in vivo, Alopecurus myosuroides; conditions: for Blackgrass plant response rating: preemergence
Summary of the method: (§2)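 Herbicidal effect is expressed as percent visual control (0–100) judged against untreated plants 13 to 15 days after treatment in the greenhouse. Preemergence pots contained seeds in a soil–sand blend; postemergence plants, 2–18 cm tall, grew in peat-based planting medium.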

wheat [8] = test: Test C preemergence; format: in vivo, Triticum aestivum; conditions: for Wheat plant response rating: preemergence
Summary of the method: as §2

corn [9] = test: Test C preemergence; format: in vivo, Zea mays; conditions: for Corn plant response rating: preemergence
Summary of the method: as §2

foxtail, giant = test: Test C preemergence; format: in vivo, Setaria faberii; conditions: for Foxtail, Giant plant response rating: preemergence
Summary of the method: as §2

johnsongrass = test: Test C preemergence; format: in vivo, Sorghum halepense; conditions: for Johnsongrass plant response rating: preemergence
Summary of the method: as §2

ragweed = test: Test C preemergence; format: in vivo, Ambrosia elation; conditions: for Ragweed plant response rating: preemergence
Summary of the method: as §2

barnyardgrass [10] = test: Test C preemergence; format: in vivo, Echinochloa crus-galli; conditions: for Barnyardgrass plant response rating: preemergence
Summary of the method: as §2

oilseed rape = test: Test C preemergence; format: in vivo, Brassica napus; conditions: for Oilseed Rape plant response rating: preemergence
Summary of the method: as §2

velvetleaf [11] = test: Test C preemergence; format: in vivo, Abutilon theophrasti; conditions: for Velvetleaf plant response rating: preemergence
Summary of the method: as §2

[12] = 125 g ai/ha, visual injury, 0 to 100 scale, approx. 10 days
[13] = 500 g ai/ha, visual injury after approx. 10 days, 0 to 100 scale (0 no effect, 100 complete control)
[14] = Postemergence, 500 g ai/ha, visual rating after approx. 10 days, 0 to 100 scale (0 no effect, 100 complete control)
[15] = postemergence, 125 g ai/ha, about 10 days, visual rating on 0 to 100 scale (0 no effect, 100 complete control)
[16] = 31 g ai/ha, visual rating, scale 0 to 100 (0 no effect, 100 complete control), 13 to 15 days
[17] = 62 g ai/ha, scale 0 to 100 (0 no effect, 100 complete control), 13 to 15 days
[18] = 125 g ai/ha, scale 0 to 100, 0 is no effect, 100 is complete control

CCCc1cc(C(=O)NCC(F)(F)F)nn1Cc1ccnc(C(F)(F)F)c1 [Compound 105]
Barnyardgrass plant response rating (barnyardgrass [1]; [12]): 100
Barnyardgrass plant response rating (barnyardgrass [1]; [13]): 100
Crabgrass, Large plant response rating (crabgrass, large [2]; [12]): 100
Crabgrass, Large plant response rating (crabgrass, large [2]; [13]): 100
Velvetleaf plant response rating (velvetleaf [3]; [12]): 100
Velvetleaf plant response rating (velvetleaf [3]; [13]): 100
Wheat plant response rating (wheat [4]; [12]): 60
Wheat plant response rating (wheat [4]; [13]): 100
Corn plant response rating (corn [5]; [12]): 60
Corn plant response rating (corn [5]; [13]): 70
Crabgrass, Large plant response rating (crabgrass, large [6]; [14]): 100
Crabgrass, Large plant response rating (crabgrass, large [6]; [15]): 100
Pigweed plant response rating (pigweed; [14]): 100
Pigweed plant response rating (pigweed; [15]): 100
Wheat plant response rating (wheat [7]; [14]): 100
Wheat plant response rating (wheat [7]; [15]): 100
Plant response rating (scale of 0 to 100), Blackgrass (blackgrass; Preemergence, 250 g ai/ha): 90
Blackgrass plant response rating (blackgrass; [16]): 90
Blackgrass plant response rating (blackgrass; [17]): 90
Blackgrass plant response rating (blackgrass; [18]): 90
Plant response rating (scale of 0 to 100), Wheat (wheat [8]; Preemergence, 250 g ai/ha): 90
Wheat plant response rating (wheat [8]; [16]): 75
Wheat plant response rating (wheat [8]; [17]): 85
Wheat plant response rating (wheat [8]; [18]): 90
Plant response rating (scale of 0 to 100), Corn (corn [9]; Preemergence, 250 g ai/ha): 95
Corn plant response rating (corn [9]; [16]): 65
Corn plant response rating (corn [9]; [18]): 80
Plant response rating (scale of 0 to 100), Foxtail, Giant (foxtail, giant; Preemergence, 250 g ai/ha): 100
Foxtail, Giant plant response rating (foxtail, giant; [16]): 100
Foxtail, Giant plant response rating (foxtail, giant; [17]): 100
Foxtail, Giant plant response rating (foxtail, giant; [18]): 100
Plant response rating (scale of 0 to 100), Johnsongrass (johnsongrass; Preemergence, 250 g ai/ha): 100
Johnsongrass plant response rating (johnsongrass; [16]): 80
Johnsongrass plant response rating (johnsongrass; [17]): 95
Johnsongrass plant response rating (johnsongrass; [18]): 100
Plant response rating (scale of 0 to 100), Ragweed (ragweed; Preemergence, 250 g ai/ha): 98
Ragweed plant response rating (ragweed; [16]): 98
Ragweed plant response rating (ragweed; [17]): 98
Ragweed plant response rating (ragweed; [18]): 98
Plant response rating (scale of 0 to 100), Barnyardgrass (barnyardgrass [10]; Preemergence, 250 g ai/ha): 100
Barnyardgrass plant response rating (barnyardgrass [10]; 31 g ai/ha, scale 0 to 100 (0 no effect, 100 complete control), 13 to 15 days): 98
Barnyardgrass plant response rating (barnyardgrass [10]; [17]): 100
Barnyardgrass plant response rating (barnyardgrass [10]; [18]): 100
Plant response rating (scale of 0 to 100), Oilseed Rape (oilseed rape; Preemergence, 250 g ai/ha): 100
Oilseed Rape plant response rating (oilseed rape; [16]): 95
Oilseed Rape plant response rating (oilseed rape; [17]): 95
Oilseed Rape plant response rating (oilseed rape; [18]): 95
Plant response rating (scale of 0 to 100), Velvetleaf (velvetleaf [11]; Preemergence, 250 g ai/ha): 100
Velvetleaf plant response rating (velvetleaf [11]; [16]): 98
Velvetleaf plant response rating (velvetleaf [11]; [17]): 100
Velvetleaf plant response rating (velvetleaf [11]; [18]): 100
